According to publication PMC5118709, “Identification of Polo-like kinase 1 interaction inhibitors using a novel cell-based assay” (Scientific Reports, 2016):
Entries after “also recorded” stand apart in the source; their conditions may differ. Each block holds one molecule with its values, some of them ahead of it. Where no end group is shown, it is not given here. [ ]: non-standard residue; d: D form. The star is where a group is joined. FITC = O=C1OC2(c3ccc(O)cc3Oc3cc(O)ccc32)c2ccc(NC(=S)*)cc21; pT = C[C@@H](OP(=O)(O)O)[C@H](N)C(=O)O

Assays:
Plk1-Map interaction [1] = target: T1, Plk1-Map interaction (Homo sapiens, UniProt P53350); experiment: BRET Plk1-Map, stable HEK293T Plk1-Luc/GFP-Map cell line; format: cell-based; set-up: cDNAs for the human full length Plk1; expressed in transfected cells
T1 sequence (P53350 whole entry): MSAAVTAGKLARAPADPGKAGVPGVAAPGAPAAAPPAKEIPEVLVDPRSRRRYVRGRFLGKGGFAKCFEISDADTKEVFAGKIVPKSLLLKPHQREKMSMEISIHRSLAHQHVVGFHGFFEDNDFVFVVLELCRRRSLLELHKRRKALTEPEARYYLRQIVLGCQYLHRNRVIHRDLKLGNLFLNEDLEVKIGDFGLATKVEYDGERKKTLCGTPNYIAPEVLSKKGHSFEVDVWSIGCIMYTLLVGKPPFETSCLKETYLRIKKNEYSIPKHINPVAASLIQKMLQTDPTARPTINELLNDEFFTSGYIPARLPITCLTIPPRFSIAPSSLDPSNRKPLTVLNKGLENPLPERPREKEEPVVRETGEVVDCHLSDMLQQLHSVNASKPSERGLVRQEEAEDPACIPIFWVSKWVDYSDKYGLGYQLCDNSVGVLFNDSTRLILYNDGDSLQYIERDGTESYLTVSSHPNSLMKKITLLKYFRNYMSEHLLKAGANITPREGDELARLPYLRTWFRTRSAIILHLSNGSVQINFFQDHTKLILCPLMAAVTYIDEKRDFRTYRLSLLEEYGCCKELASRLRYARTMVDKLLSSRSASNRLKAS
From the text: To develop a cell-based assay for the identification of Plk1 interaction inhibitors, we used Bioluminescence Resonance Energy Transfer (BRET)[42][43]. The assay monitors the interaction in HEK293T cells between Plk1 and Map205, a protein that we previously identified as an interactor of Drosophila Polo (Plk1 ortholog) on its PBD[44]. Although no ortholog of Drosophila Map205 has been found in vertebrates, this protein robustly interacts with vertebrate Plk1. […] Importantly, crystallography with zebrafish Plk1 has recently shown that Map205 nevertheless docks in the canonical phosphopeptide binding site of the PBD, with the natural phospho-mimetic Glu314 residue (Fig. 1A)[45]. In our assay, human Plk1 and a fragment of Drosophila Map205 (Map205_254-416 = Map) are respectively fused to Renilla luciferase II (Luc) and GFP10 (GFP), giving rise to energy transfer when the proteins are in close proximity (Fig. 1B). […] All combinations of Plk1 and Map tagged with Luc and GFP were tested (Supplementary Fig. S1). The Plk1-Luc/GFP-Map combination was selected because it yielded the highest BRET dynamic window. We then generated clonal stable cell lines co-expressing these two fusion proteins. These cell lines behaved very similarly to each other in BRET, and we selected one line that gave a high and reproducible BRET signal, with a Z′ score of 0.78, indicative of a robust assay for the purpose of a chemical screen (Supplementary Fig. S1).
(§1) We used our cell-based assay to screen a library of 112 983 compounds available in-house at IRIC’s High-Throughput Screening (HTS) platform (see Materials & Methods). Compounds were tested on cells in 384-well plates at concentrations between 10 μM and 25 μM, depending on their concentration in the original stocks solutions. BRET readings were taken 2 hours after treatment. Results obtained show a tight, close to normal distribution centered around zero inhibition relative to DMSO-treated controls (Fig. 1D). Compounds inducing at least 30% BRET inhibition were selected. From these, auto-fluorescent compounds and those that induced more than 90% reduction in RLucII luminescence were removed, leaving 800 primary hits, that we then re-tested using the same assay. In parallel, we tested these compounds in a control BRET assay for an unrelated pair of interacting proteins (BRAF-CRAF[46]) to exclude false-positive compounds that could reduce the BRET signal by interfering with light or by modifying the activity of GFP or Luc.
For BRET on transiently transfected cells, 48 hours after the transfection, medium was removed, cells were washed twice with PBS, and then Tyrode solution (140 mM NaCl, 2.7 mM KCl, 12 mM NaHCO3, 5.6 mM D-glucose, 0.49 mM MgCl2, 0.37 mM NaH2PO4, 25 mM HEPES, pH 7.4, where 1 mM CaCl2 was freshly added) was added to the cells. Total fluorescence was first measured using a FlexStation II microplate reader (Molecular Devices), where the GFP10 was excited at 400 nm and read at 510 nm. Then, cells were treated for 5 minutes with 2.5 μM coelenterazine 400a (Gold Technology) before reading BRET2 using the Mithras LB940 microplate reader (Berthold Technologies). BRET2 signal corresponds to the light emitted by the GFP10 acceptor constructs (515 nm ± 20 nm) divided by the light emitted by the RlucII donor constructs (400 nm ± 70 nm). Net BRET2 was calculated by subtracting the background BRET ratio of the RLucII plasmid alone from the BRET ratio obtained by the two BRET partners. The Net BRET2 was plotted according to the GFP10/RLucII ratio, which was obtained by dividing the total fluorescence by the RLucII emission.
For the high throughput chemical screen, cells were amplified and frozen as multiple 1 ml aliquots containing 25 millions of stable HEK293T Plk1-Luc/GFP-Map cells to ensure that cells at the same passage number are used during the screen. […] Five days later, cells were counted and re-suspended in Tyrode solution. […]

GST-PBD367-603 of Plk1 = GST-PBD367-603 of Plk1 (Homo sapiens, UniProt P53350); experiment: fluorescence polarization assay PBD-phosphopeptide
Sequence of GST-PBD367-603 of Plk1 (P53350 367-603): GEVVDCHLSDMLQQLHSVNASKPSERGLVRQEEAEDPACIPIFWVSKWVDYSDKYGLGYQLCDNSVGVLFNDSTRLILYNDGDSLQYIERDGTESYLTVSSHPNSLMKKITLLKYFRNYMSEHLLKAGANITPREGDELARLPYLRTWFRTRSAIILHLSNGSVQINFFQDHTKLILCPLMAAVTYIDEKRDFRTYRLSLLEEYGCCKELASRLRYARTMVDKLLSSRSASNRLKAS
Experimental: In this assay, an optimal phosphopeptide for PBD binding is coupled with a FITC fluorophore and its binding to purified recombinant PBD of Plk1 is monitored by the change in polarization of incident light.
The FP buffer was composed of 10 mM Tris pH 8.0, 50 mM NaCl, 1 mM EDTA, 20% glycerol and 0.1% NP-40. The peptide (final concentration 10 nM) was always added to the wells of non-binding, black, 384-well plates, 1 hour after the addition of the protein with the buffer (+/− treatment, 10% DMSO). […] EC65s were used to perform the competitive assays with the non-labeled peptides and with the inhibitors. FP Inhibition was calculated with the formula: 100 − [((mPsample − mPfree peptide)\(mPDMSO − mPfree peptide)) × 100]. […] (Map peptide), and corresponding non-labeled peptides are identical but without FITC in N-terminal. […] Inhibition curves were fitted with GraphPad (Prism software).

HEK293T cells = experiment: mitotic index assay (phospho-Histone H3) in HEK293T cells; settings: 10 μM
Experimental: For the mitotic index assay, 4000 HeLa cells or 5000 HEK293T cells per well were seeded in a 96-well plate. The day after, cells were incubated for 7 hours with different compounds, and then fixed by adding formaldehyde (4% final concentration) directly to each well. Plates were incubated 20 minutes at 37 °C, and then wells were rinsed three times with TBS-Tween 0.1%. A 1 hour block with PHEM buffer (60 mM Pipes, 25 mM HEPES, 10 mM EGTA, 4 mM MgSO4, pH 6.9) containing 2% BSA and 0.1% triton was performed, before addition of the primary antibody to the wells. The anti-phospho-Histone H3 (Ser10) antibody (EMD Millipore) was diluted 1:300 in PHEM buffer containing 2% BSA and added to the wells for 2 hours at room temperature in the dark. […] Plates were incubated for 1h 30 at room temperature in the dark, and then wells were washed 3 times with TBS-Tween 0.1%. A solution of Mowiol containing DAPI was finally added to the wells. Plates were kept at 4 °C in the dark until imaging using the 20x objective on an Operetta system (Perkin Elmer inc.). The mitotic index, corresponding to the percentage of pHH3 positive cells relative to the total number of DAPI-stained cells detected was calculated by the Operetta using the Harmony 3.5 software. Experiments were done in triplicates.

Plk1-Map interaction [2] = target: T1, Plk1-Map interaction; experiment: BRET Plk1-Map, transient Luc-Map/Plk1-GFP in HEK293T; format: cell-based; set-up: cDNAs for the human full length Plk1; expressed in transfected cells; settings: confirmation screen
Experimental: (§2) For the confirmation screen, the same procedure as for the primary screen was followed, except that HEK293T cells were also seeded at 6.25 millions of cells per simple CellStack on day 1 for transient transfections. These cells were transfected on day 3 with Luc-Map (5 μg) and Plk1-GFP (25 μg) pIRESHyg3 plasmids using polyethylenimine (PEI). To identify false-positives compounds, Luc-CRAF (4 μg) and GFP-BRAF (20 μg) plasmids were also transfected with PEI following the published procedure.

HeLa cells [3] = experiment: mitotic index assay (phospho-Histone H3) in HeLa cells; format: cell-based; settings: 10 μM
HeLa cells [4] = experiment: mitotic defect phenotypes by immunofluorescence; format: cell-based; settings: 10 μM, 7 h
Experimental: HeLa cells were treated with these compounds along with the known PBD inhibitors PPG, TQ, Poloxin and the KD inhibitor BI2536 as controls, and then stained against α-Tubulin, pericentrin (a centrosome marker) and DNA (Fig. 2D). In all cases, there was a marked increase in the frequency of disorganized spindles compared with DMSO-treated control cells. This is expected as Plk1 plays multiple roles in spindle assembly and maintenance. […] Cpd 69, an analog of compound 122, induced a similar phenotype at lower concentrations (data not shown). This phenotype was not seen after treatment with BI2536.
For the mitotic defect phenotypes, 25 200 HeLa cells were plated on poly-L-lysine coated round cover slips in 24-well plates. The day after, cells were treated for 7 hours, and then washed with PHEM buffer at 37 °C before fixation in PHEM buffer containing 4% formaldehyde for 20 minutes at 37 °C. Cells were washed three times with TBS-tween 0.1% and plate was kept overnight at 4 °C. Next steps were followed as previously described except that coverslips were incubated in a dark wet chamber with antibodies. Anti-pericentrin (diluted 1:1000; Abcam), anti-α-tubulin DM1A (diluted 1:500; Sigma-Aldrich), Alexa Fluor 488 anti-rabbit and Texas-Red anti-mouse (diluted 1:200; Invitrogen) were used. Coverslips were mounted on slide using Vectashield media containing DAPI (Vector Laboratories).
Images shown in Fig. 2D were acquired on an AxioImager microscope (Carl Zeiss) with a 100x oil objective (NA 1.4 DICIII) and an AxioCam HRM camera (Carl Zeiss) using AxioVision software (Carl Zeiss).

Plk1-Map interaction [5] = target: T1, Plk1-Map interaction; experiment: LUMIER co-immunoprecipitation assay Plk1-Map
Experimental: After cell lysis, GFP-Plk1 was immunoprecipitated and co-purified Map-Luc was measured by luminescence following addition of the luciferase substrate, coelenterazine.
Half a million stably transfected Map205-RLucII/GFP10-Plk1 cells in Tyrode solution were seeded per well in a 96-well plate and allowed to settle for 30 min at 37 °C. […] Plates were then centrifuged at 4 °C at 3000 rpm for 5 minutes to pellet cells. Cells were then lysed with the IP buffer (20 mM Tris pH 7.5, 150 mM NaCl, 2 mM EGTA, 0.5% NP-40, 1 mM DTT, PMSF, aprotinin and leupeptin) and incubated on ice for 20 minutes. Plates were centrifuged again at 4 °C at 3400 rpm for 10 minutes, and the soluble fraction was transferred into a new 96-well plate. Note that 10 μl of this fraction was transferred in white 96-well plates from which the luminescence was read as a measure of the input amount of cell lysate for the co-IP. GFP-Plk1 was immunoprecipitated by adding 0.35 μl of anti-GFP antibody (Invitrogen). Plates were sealed and incubated on a rotator at 4 °C for 30 minutes. Then, 4 μl of pre-washed protein A magnetic beads (Invitrogen) were added to each well. Plates were sealed and incubated at 4 °C for 1h30. The extracts + beads were then transferred in a 96-well PCR plates and beads were washed 3 times with the IP buffer using a magnetic 96-well rack. The fourth wash was done in Tyrode solution, then beads were re-suspended with it and transferred in a white 96-well plate. […] Tyrode was also added to the plates containing the input fraction, then Coelenterazine h was added to the wells, and enhanced luminescence was read as described above.

CRAF-BRAF = target: T2, CRAF-BRAF (Homo sapiens, UniProt P04049+P15056); experiment: control BRET CRAF-BRAF (transient); format: cell-based
T2 construct: expressed in transfected cells; host or cells: HEK293T, transient transfection with PEI
T2 sequence (P04049 whole entry): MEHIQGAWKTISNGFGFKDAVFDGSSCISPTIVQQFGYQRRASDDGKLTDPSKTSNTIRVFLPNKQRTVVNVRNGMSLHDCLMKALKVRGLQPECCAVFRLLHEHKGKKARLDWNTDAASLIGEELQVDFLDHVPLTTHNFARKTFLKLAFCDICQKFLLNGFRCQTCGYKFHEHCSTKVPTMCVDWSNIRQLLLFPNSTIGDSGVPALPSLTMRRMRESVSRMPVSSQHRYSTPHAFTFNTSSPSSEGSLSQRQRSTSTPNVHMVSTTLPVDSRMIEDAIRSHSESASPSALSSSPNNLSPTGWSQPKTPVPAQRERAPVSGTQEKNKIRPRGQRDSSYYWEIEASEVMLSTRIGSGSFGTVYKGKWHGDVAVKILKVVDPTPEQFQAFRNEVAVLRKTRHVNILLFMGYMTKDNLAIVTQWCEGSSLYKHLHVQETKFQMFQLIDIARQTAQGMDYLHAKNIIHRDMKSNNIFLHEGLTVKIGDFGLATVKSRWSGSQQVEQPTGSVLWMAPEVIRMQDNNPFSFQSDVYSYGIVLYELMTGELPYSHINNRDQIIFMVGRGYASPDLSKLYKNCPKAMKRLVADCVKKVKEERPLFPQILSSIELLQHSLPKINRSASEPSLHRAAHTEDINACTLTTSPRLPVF
T2 sequence (P15056 whole entry): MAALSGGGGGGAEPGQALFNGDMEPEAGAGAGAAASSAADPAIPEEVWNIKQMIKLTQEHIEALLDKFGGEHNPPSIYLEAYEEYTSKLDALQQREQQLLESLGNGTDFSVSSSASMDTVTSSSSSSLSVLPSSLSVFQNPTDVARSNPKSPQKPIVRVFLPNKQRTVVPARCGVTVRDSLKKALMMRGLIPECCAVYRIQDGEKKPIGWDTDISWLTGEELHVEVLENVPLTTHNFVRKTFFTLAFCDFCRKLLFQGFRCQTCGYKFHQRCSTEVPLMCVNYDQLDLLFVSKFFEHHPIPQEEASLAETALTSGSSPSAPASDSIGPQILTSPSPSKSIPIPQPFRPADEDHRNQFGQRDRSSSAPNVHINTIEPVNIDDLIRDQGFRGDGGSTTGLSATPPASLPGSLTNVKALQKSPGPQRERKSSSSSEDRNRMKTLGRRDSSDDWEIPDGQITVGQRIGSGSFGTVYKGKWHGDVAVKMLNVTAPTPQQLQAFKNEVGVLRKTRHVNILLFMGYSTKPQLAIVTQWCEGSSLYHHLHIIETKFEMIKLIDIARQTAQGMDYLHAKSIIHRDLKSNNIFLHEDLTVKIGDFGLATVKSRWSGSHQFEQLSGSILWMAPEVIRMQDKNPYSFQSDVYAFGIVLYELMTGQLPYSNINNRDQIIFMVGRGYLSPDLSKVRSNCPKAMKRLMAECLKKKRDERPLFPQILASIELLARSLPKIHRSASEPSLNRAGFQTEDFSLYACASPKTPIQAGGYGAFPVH
Experimental: as §1, §2

His-PBD326-603 [6] = target: T3, His-PBD326-603 (Homo sapiens, UniProt P53350); experiment: alkylation sites on the PBD by LC-MS/MS
T3 sequence (P53350 326-603): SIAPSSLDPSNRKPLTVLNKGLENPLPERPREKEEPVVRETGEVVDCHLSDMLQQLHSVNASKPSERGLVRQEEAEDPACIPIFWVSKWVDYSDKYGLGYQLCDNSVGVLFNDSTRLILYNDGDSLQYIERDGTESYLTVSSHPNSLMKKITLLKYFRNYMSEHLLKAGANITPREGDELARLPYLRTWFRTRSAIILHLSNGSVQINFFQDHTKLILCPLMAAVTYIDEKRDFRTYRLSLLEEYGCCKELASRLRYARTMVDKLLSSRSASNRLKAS
Experimental: Proteins were precipitated using acetone and resuspended in 100 μl. Sample reduction was performed by adding 50 μl of 5 mM TCEP in 50 mM ammonium bicarbonate. Samples were then added 50 μl of chloroacetamide 50 mM with ammonium bicarbonate 50 mM to protect exposed cysteine residues. One microgram of trypsin was added and the digestion was performed for 8 h at 37 °C. […] Each full MS spectrum acquired with a 70,000 resolution was followed by 12 MS/MS spectra, where the 12 most abundant multiply charged ions were selected for MS/MS sequencing. Peptides were identified using Peaks 8.0 (Bioinformatics Solution Inc.) and peptide sequences were blasted against the Human Uniprot database. Tolerance was set at 10 ppm for precursor and 0.01 Da for fragment ions during data processing. For the post-translational modification of proteins, occurrence of carbamidomethylation (C), oxidation (M), deamidation (NQ) was considered as well as addition of TQ (C, K), Poloxin (K, C, H), and vinyl sulfone (C, H, K) when needed.

[7] = reaction with amino-protected amino acids (LC-MS); settings: room temperature
Experimental: Vinyl sulfones are reactive species that can alkylate substrates as a result of a nucleophilic attack on the distal carbon of the vinyl group. To evaluate the potential of Cpd 161 (vinyl sulfone) to react with proteins, we tested its reaction with nucleophilic amino acid side chains groups. […] To test whether Cpd 161 could react covalently with the PBD, we incubated them together and examined the molecular mass of the protein by SDS-PAGE (Fig. 7). […] Consistent with this idea, the extent of the shift depended on the concentration of Cpd 161 used (Fig. 7B) and also on the incubation time (Fig. 7C).
To a stirred solution of electrophile (0.02 mmol) and amino acid (1- 1.5eq) in DMF (0.3 ml) were added a few drops of a diluted aqueous solution of sodium bicarbonate. The reaction was monitored using an Agilent 6120 Quadrupole LC/MS system (Agilent Technologies). In all cases, the molecular ion of the product was observed.

His-PBD326-603 [8] = target: T3, His-PBD326-603; experiment: covalent reaction with the PBD by SDS-PAGE; set-up: His-PBD326-603 was expressed in E.coli BL21; made in house; host or cells: E. coli BL21; settings: 2.5 mM, 3-4 h
Experimental: Vinyl sulfones are reactive species that can alkylate substrates as a result of a nucleophilic attack on the distal carbon of the vinyl group.
Membranes were blocked with TBS-Tween 0.1% containing 5% of dry milk powder, then incubated with anti-Plk1 (F-8; Santa Cruz Biotechnologies Inc.) or with a 6x-His epitope tag antibody (Invitrogen; gift from Gregory Emery). HRP-conjugated goat anti-mouse IgG (Jackson ImmunoResearch Laboratories inc.) was used and TBS-Tween 0.1% was used for the washes before and after the secondary antibody. […] Gels were imaged using a ChemiDoc MP system (BioRad).

mitosis = settings: cited from earlier work
[9] = target: T4, Human Plk1 full length protein (human, UniProt P53350 1-603); experiment: fluorescence polarisation; FITC-Map peptide with the PBD or full-length Plk1 (Supplementary Fig. S3); compounds tested up to 100 uM; settings: both partners purified
T4 construct: Polo-like kinase 1 (Plk1), human, full length protein; also called full-length Plk1; whole Plk1; source: bought: Abcam
T4 sequence (P53350 whole entry): as the sequence (P53350 whole entry) above

human GST-PBD_(367-603) = target: T5, human GST-PBD_(367-603) (human, UniProt P53350 367-603); experiment: fluorescence polarisation; competition: FITC-phosphopeptide 10 nM and GST-PBD 367-603 at 38 nM (EC65), unlabeled phosphopeptide at increasing concentrations; FP buffer; settings: both partners purified
T5 construct: also called Polo-Box Domain of Plk1; source: bought: Sigma-Aldrich
T5 sequence (P53350 367-603): as the sequence (P53350 367-603) above

Molecule: COc1ccc(-c2oc3ccccc3c(=O)c2OS(=O)(=O)c2cc(Cl)ccc2Cl)cc1 [Cpd 122]
Primary screen Plk1-Map (stable) % Inihibition (Plk1-Map interaction [1]; 10-25 μM, 2 h): 44.05%
Primary screen Plk1-Map (stable) % Quench RLuc (Plk1-Map interaction [1]; 10-25 μM, 2 h): 86.60%
Confirmation Plk1-Map (stable) % Inihibition (Plk1-Map interaction [1]; confirmation screen): 30.57%
Confirmation Plk1-Map (stable) % Quench RLuc (Plk1-Map interaction [1]; confirmation screen): 79.14%
activity in the FP assay (GST-PBD367-603 of Plk1; 50 μM): little or no activity
effect on mitotic index, purchased compounds (HEK293T cells): significant increase
Confirmation Plk1-Map (transient) % Inihibition (Plk1-Map interaction [2]): -1.93%
Confirmation Plk1-Map (transient) % Quench RLuc (Plk1-Map interaction [2]): 25.69%
effect on mitotic index, purchased compounds (HeLa cells [3]): significant increase
2 > pericentrin foci (percentage of cells) (HeLa cells [4]): 65 ± 2%
Disorganized spindles (percentage of cells) (HeLa cells [4]): 85 ± 5%
Average-Beads (mean luminescence) (Plk1-Map interaction [5]; 10-25 μM, 2 h): 1,018,574
Co-IP Values relative to top in plate column = 1 (Plk1-Map interaction [5]; 10-25 μM, 2 h): 0.776
effect on the Plk1-Map interaction in co-IP (Plk1-Map interaction [5]; 10-25 μM, 2 h): no effect
Relative Luminescence Unit (Plk1-Map interaction [5]; mean divided by maximum mean of the compounds): 0.776
Primary screen CRAF-BRAF (transient) % Inihibition (CRAF-BRAF; 10-25 μM): -8.30%
Primary screen CRAF-BRAF (transient) % Quench RLuc (CRAF-BRAF; 10-25 μM): 44.16%
Confirmation CRAF-BRAF (transient) % Inihibition (CRAF-BRAF; confirmation screen): 3.03%
Confirmation CRAF-BRAF (transient) % Quench RLuc (CRAF-BRAF; confirmation screen): 35.15%

Molecule: CC1=CC(=O)C(C(C)C)=CC1=O [TQ, Thymoquinone]
2 > pericentrin foci (percentage of cells) (HeLa cells [4]): 33 ± 9%
Disorganized spindles (percentage of cells) (HeLa cells [4]): 56 ± 8%
time to completion of reaction with amino-protected cysteine [7]: approximately 10 minutes
concentrations required to disrupt mitosis and induce apoptosis (mitosis): high micromolar concentrations

B3: unlabeled phosphopeptide GPMQS{T}PLNG (peptide)
peptide: GPMQS[pT]PLNG
notes: as m7 but without FITC in N-terminal; also called corresponding unlabeled phosphopeptide; equivalent unlabeled peptide; source: synthetic peptide (Bio Basic inc., >95% pure)
binding result (human GST-PBD_(367-603)): binds

The next lines start with results.

alkylated residues very near the phosphopeptide binding site (His-PBD326-603 [6]): His489; also recorded: Lys492
residues of the PBD found alkylated (His-PBD326-603 [6]; 2.5 mM TQ, 2.5 mM Cpd 161 or 250 μM Poloxin, 3 hours): cysteines, lysines and histidines
IC50 (GST-PBD367-603 of Plk1; FP - IC50 (μM), Table S3): 8.3 ± 2.6 µM
activity in the FP assay (GST-PBD367-603 of Plk1; SAR): showed the same activity as Cpd 16
Molecule: C=CS(=O)(=O)c1cc(C(F)(F)F)cc(C)n1 [Cpd 161, 2-methyl-4-(trifluoromethyl)-6-(vinylsulfonyl) pyridine]
time to completion of reaction with amino-protected cysteine [7]: approximately 10 minutes
time to completion of reaction with amino-protected lysine [7]: approximately 10 minutes
mobility shift of the PBD in SDS-PAGE (His-PBD326-603 [8]): appeared higher in the gel, a few kDa above the protein treated with DMSO alone

binding result [9]: binds
B1: FITC-GIAVPDEREFDIEADMRPHEL (Map peptide) (peptide)
peptide: {FITC}-GIAVPDEREFDIEADMRPHEL
notes: small peptide derived from Drosophila Map205; also called small peptide derived from Map205 coupled to FITC; source: synthetic peptide (Bio Basic inc., >95% pure)

binding result (human GST-PBD_(367-603)): binds
B2: FITC-GPMQS{T}PLNG (FITC-labeled PBD-binding phosphopeptide) (peptide)
peptide: {FITC}-GPMQS[pT]PLNG
notes: also called FITC-phosphopeptide; source: synthetic peptide (Bio Basic inc., >95% pure)
